According to patent US20150141381A1, “TETRACYCLINE COMPOUNDS HAVING TARGET THERAPEUTIC ACTIVITIES” (Paratek Pharmaceuticals, Inc., priority 2001, published 2015):
Read-outs that look alike come from different tables or passages of the source.

Experiments:
S. aureus RN450 = assay: In Vitro Anti-Bacterial Activity Assay (MIC), gram positive; format: cell-based; details: Staphylococcus aureus, RN450, 18 h, read-out: Antibiotic Activity Gram +
E. coli mL308 225 = assay: In Vitro Anti-Bacterial Activity Assay (MIC), gram negative; format: cell-based; details: Escherichia coli, ML308225, 18 h, read-out: Antibiotic Activity Gram −

| Compound | MIC (S. aureus RN450) | MIC (E. coli mL308 225) | MIC (S. aureus RN450; MIC class, Table 3) | MIC (E. coli mL308 225; MIC class, Table 3) |
| --- | --- | --- | --- | --- |
| COc1ccc(OC(=O)Nc2ccc(-c3ccc(O)c4c3C[C@H]3C[C@H]5[C@@H](N(C)C)C(O)=C(C(N)=O)C(=O)[C@@]5(O)C(O)=C3C4=O)cc2)cc1 [GC] | > 4 mg/L | > 4 mg/L | – | – |
| CN(C)CC#Cc1cc(C(C)(C)C)c(O)c2c1C[C@H]1C[C@H]3[C@H](N(C)C)C(O)=C(C(N)=O)C(=O)[C@@]3(O)C(O)=C1C2=O [GD] | – | – | < 4 mg/L | > 4 mg/L |
| COc1cc(-c2ccc(O)c3c2C[C@H]2C[C@H]4[C@H](N(C)C)C(O)=C(C(N)=O)C(=O)[C@@]4(O)C(O)=C2C3=O)cc(OC)c1OC [GE] | – | – | < 4 mg/L | > 4 mg/L |
| COc1ncc(-c2ccc(O)c3c2C[C@H]2C[C@H]4[C@H](N(C)C)C(O)=C(C(N)=O)C(=O)[C@@]4(O)C(O)=C2C3=O)c(OC)n1 [GF] | – | – | < 4 mg/L | < 4 mg/L |
| CN(C)C1C(O)=C(C(N)=O)C(=O)[C@@]2(O)C(O)=C3C(=O)c4c(O)ccc(-c5ccc(CN6CCCC6)c6ccccc56)c4C[C@H]3C[C@@H]12 (stereo partly drawn) [GH] | – | – | < 4 mg/L | < 4 mg/L |
| CCOc1ccc(-c2ccc(O)c3c2C[C@H]2C[C@H]4[C@H](N(C)C)C(O)=C(C(N)=O)C(=O)[C@@]4(O)C(O)=C2C3=O)cc1CN [GJ] | – | – | < 4 mg/L | < 4 mg/L |
| CCOC(=O)CNCc1ccc(-c2ccc(O)c3c2C[C@H]2C[C@H]4[C@@H](N(C)C)C(O)=C(C(N)=O)C(=O)[C@@]4(O)C(O)=C2C3=O)cc1 [GK] | – | – | < 4 mg/L | > 4 mg/L |
| CC(C)NCc1ccc(-c2ccc(O)c3c2C[C@H]2C[C@H]4C(N(C)C)C(O)=C(C(N)=O)C(=O)[C@@]4(O)C(O)=C2C3=O)cc1 (stereo partly drawn) [GL] | – | – | < 4 mg/L | < 4 mg/L |
| CN(C)c1cc(NC(=N)NCc2ccccc2)c(O)c2c1C[C@H]1C[C@H]3C(N(C)C)C(O)=C(C(N)=O)C(=O)[C@@]3(O)C(O)=C1C2=O (stereo partly drawn) [GM] | – | – | > 4 mg/L | > 4 mg/L |
| COc1ccc(C=O)cc1-c1ccc(O)c2c1C[C@H]1C[C@H]3[C@@H](N(C)C)C(O)=C(C(N)=O)C(=O)[C@@]3(O)C(O)=C1C2=O [GO] | – | – | < 4 mg/L | > 4 mg/L |
| CN1CCCC1=Nc1ccc(-c2ccc(O)c3c2C[C@H]2C[C@H]4[C@@H](N(C)C)C(O)=C(C(N)=O)C(=O)[C@@]4(O)C(O)=C2C3=O)cc1 [GP] | – | – | < 4 mg/L | > 4 mg/L |
| CN(C)[C@H]1C(O)=C(C(N)=O)C(=O)[C@@]2(O)C(O)=C3C(=O)c4c(O)ccc(-c5ccc(NC(=O)C6CC6)cc5)c4C[C@H]3C[C@@H]12 [GQ] | – | – | < 4 mg/L | > 4 mg/L |
| CCOC(=O)CNC(=O)c1cccc(-c2ccc(O)c3c2C[C@H]2C[C@H]4[C@H](N(C)C)C(O)=C(C(N)=O)C(=O)[C@@]4(O)C(O)=C2C3=O)c1 [GS] | – | – | < 4 mg/L | > 4 mg/L |
| CN(C)[C@H]1C(O)=C(C(N)=O)C(=O)[C@@]2(O)C(O)=C3C(=O)c4c(O)ccc(-c5ccc(NC(=O)C(C)(C)C)cc5)c4C[C@H]3C[C@@H]12 [GT] | – | – | < 4 mg/L | > 4 mg/L |
| CN(C)[C@H]1C(O)=C(C(N)=O)C(=O)[C@@]2(O)C(O)=C3C(=O)c4c(O)ccc(-c5ccc(/N=C\NC(C)(C)C)cc5)c4C[C@H]3C[C@@H]12 [GU] | – | – | < 4 mg/L | < 4 mg/L |
| CN(C)C1C(O)=C(C(N)=O)C(=O)[C@@]2(O)C(O)=C3C(=O)c4c(O)ccc(-c5ccc(NC(=O)Nc6ccc(OC(F)(F)F)cc6)cc5)c4C[C@H]3C[C@@H]12 (stereo partly drawn) [GV] | – | – | > 4 mg/L | > 4 mg/L |
| COc1ccc(CNCc2ccc(-c3ccc(O)c4c3C[C@H]3C[C@H]5[C@H](N(C)C)C(O)=C(C(N)=O)C(=O)[C@@]5(O)C(O)=C3C4=O)cc2)cc1 [GX] | – | – | < 4 mg/L | < 4 mg/L |

| Compound | MIC (S. aureus RN450) | MIC (E. coli mL308 225) | MIC (S. aureus RN450; MIC class, Table 3) | MIC (E. coli mL308 225; MIC class, Table 3) |
| --- | --- | --- | --- | --- |
| CN(C)[C@@H]1C(O)=C(C(N)=O)C(=O)[C@@]2(O)C(O)=C3C(=O)c4c(O)ccc(-c5ccc(CN6CCCC6)o5)c4C[C@H]3C[C@@H]12 [GY] | – | – | < 4 mg/L | < 4 mg/L |
| COc1ccc(CN2CCCC2)cc1-c1ccc2c(c1O)C(=O)C1=C(O)[C@]3(O)C(=O)C(C(N)=O)=C(O)[C@@H](N(C)C)[C@@H]3[C@@H](O)[C@@H]1[C@H]2C [HC] | – | – | > 4 mg/L | > 4 mg/L |
| COC(=O)c1cc(N)cc(-c2ccc(O)c3c2C[C@H]2C[C@H]4[C@H](N(C)C)C(O)=C(C(N)=O)C(=O)[C@@]4(O)C(O)=C2C3=O)c1 [HE] | – | – | < 4 mg/L | > 4 mg/L |
| C[C@H]1c2c(-c3ccc4c(c3)OCO4)cc(-c3cccc4c3OCO4)c(O)c2C(=O)C2=C(O)[C@]3(O)C(=O)C(C(N)=O)=C(O)[C@@H](N(C)C)[C@@H]3[C@@H](O)[C@@H]21 [HF] | – | – | < 4 mg/L | > 4 mg/L |
| COCCOC(=O)Nc1ccc(-c2ccc(O)c3c2C[C@H]2C[C@H]4[C@H](N(C)C)C(O)=C(C(N)=O)C(=O)[C@@]4(O)C(O)=C2C3=O)cc1 [HH] | – | – | < 4 mg/L | > 4 mg/L |
| COc1ccc(-c2ccc(O)c3c2C[C@H]2C[C@H]4[C@H](N(C)C)C(O)=C(C(N)=O)C(=O)[C@@]4(O)C(O)=C2C3=O)cc1CN [HI] | – | – | < 4 mg/L | > 4 mg/L |
| CN(C)C1C(O)=C(C(N)=O)C(=O)[C@@]2(O)C(O)=C3C(=O)c4c(O)c(CN)cc(-c5ccc(C(C)(C)C)cc5)c4C[C@H]3C[C@@H]12 (stereo partly drawn) [HJ] | – | – | < 4 mg/L | < 4 mg/L |
| CCOc1ccc(-c2ccc(O)c3c2C[C@H]2C[C@H]4C(N(C)C)C(O)=C(C(N)=O)C(=O)[C@@]4(O)C(O)=C2C3=O)cc1CNC(=O)NC(C)(C)C (stereo partly drawn) [HK] | – | – | < 4 mg/L | > 4 mg/L |
| CN(C)Cc1ccc(-c2ccc(O)c3c2C[C@H]2C[C@H]4[C@H](N(C)C)C(O)=C(C(N)=O)C(=O)[C@@]4(O)C(O)=C2C3=O)o1 [HL] | – | – | < 4 mg/L | < 4 mg/L |
| CN(C)[C@@H]1C(O)=C(C(N)=O)C(=O)[C@@]2(O)C(O)=C3C(=O)c4c(O)ccc(-c5ccc(CN6CCOCC6)o5)c4C[C@H]3C[C@@H]12 [HM] | – | – | < 4 mg/L | < 4 mg/L |
| CC(C)NCc1ccc(-c2ccc(O)c3c2C[C@H]2C[C@H]4[C@@H](N(C)C)C(O)=C(C(N)=O)C(=O)[C@@]4(O)C(O)=C2C3=O)o1 [HN] | – | – | < 4 mg/L | < 4 mg/L |
| COc1ccc(CNCc2cccc(C)c2)cc1-c1ccc(O)c2c1C[C@H]1C[C@H]3C(N(C)C)C(O)=C(C(N)=O)C(=O)[C@@]3(O)C(O)=C1C2=O (stereo partly drawn) [HO] | – | – | < 4 mg/L | < 4 mg/L |
| CN(C)[C@@H]1C(O)=C(C(N)=O)C(=O)[C@@]2(O)C(O)=C3C(=O)c4c(O)c(NC(=O)OCC(C)(C)C)cc(CN)c4C[C@H]3C[C@@H]12 [HP] | – | – | > 4 mg/L | > 4 mg/L |
| CN(C)c1ccc(-c2cc(CN)c(O)c3c2C[C@H]2C[C@H]4[C@@H](N(C)C)C(O)=C(C(N)=O)C(=O)[C@@]4(O)C(O)=C2C3=O)cc1 [HQ] | – | – | < 4 mg/L | > 4 mg/L |
| CN(C)c1ccc(-c2cc(C#CC3=CCCCC3)c(O)c3c2C[C@H]2C[C@H]4[C@H](N(C)C)C(O)=C(C(N)=O)C(=O)[C@@]4(O)C(O)=C2C3=O)cc1 [HR] | – | – | > 4 mg/L | > 4 mg/L |
| CCOc1ccc(-c2ccc(O)c3c2C[C@H]2C[C@H]4C(N(C)C)C(O)=C(C(N)=O)C(=O)[C@@]4(O)C(O)=C2C3=O)cc1CNC(=O)C(F)(F)F (stereo partly drawn) [HS] | – | – | < 4 mg/L | > 4 mg/L |
